Here are results for 19 molecules from PubChem BioAssay AID1259408 (Genetic Toxicology Data Bank (GENE-TOX), 2018).

SMILES strings stand for the structures. Active and inactive are the calls of the source. How the calls were made is not given here.

This series deals with GENE-TOX genotoxicity assays, various organisms and cells. The experiment in a line: GENE-TOX mutagenicity studies. The following applies: for call: Assay Type: In vivo carcinogenicity studies.
The mark [1] stands for this setting: Species/Cell Type: Human lymphocytes, Assay Type: Sister-chromatid exchange (SCE) in vitro, Assay Code: SCL+D, Dose Response: With dose response, Evaluation Type: Evaluation B (Post-1980).
The mark [2] stands for this setting: Species/Cell Type: Human, Assay Type: Sister-chromatid exchange (SCE) in vitro, Assay Code: SC1+D, Dose Response: With dose response, Evaluation Type: Evaluation B (Post-1980).
[3] abbreviates: Species/Cell Type: Nonhuman, Assay Code: CCG+L, Evaluation Type: Evaluation A (Pre-1980).
Setting [4] is: Species/Cell Type: Nonhuman, Assay Type: Sister-chromatid exchange (SCE) in vivo, Assay Code: SC3+, Evaluation Type: Evaluation B (Post-1980).
Where [5] appears, read: Species/Cell Type: Salmonella typhimurium (one or more of the five standard strains: TA98, TA100, TA1535, TA1537, and TA1538), Assay Type: Histidine reverse gene mutation, Ames assay, Assay Code: SAL+, Evaluation Type: Evaluation A (Pre-1980).
The mark [6] stands for this setting: Species/Cell Type: Saccharomyces cerevisiae, Assay Type: Mitotic recombination or gene conversion, Assay Code: YEC-, Evaluation Type: Evaluation A (Pre-1980).
[7] abbreviates: Species/Cell Type: Saccharomyces cerevisiae, Assay Type: Mitotic recombination or gene conversion, Assay Code: YEH-, Evaluation Type: Evaluation A (Pre-1980).
[8] abbreviates: Species/Cell Type: Salmonella typhimurium (one or more of the five standard strains: TA98, TA100, TA1535, TA1537, and TA1538), Assay Type: Histidine reverse gene mutation, Ames assay, Assay Code: SAL-, Evaluation Type: Evaluation A (Pre-1980).
Setting [9] is: Species/Cell Type: Mammalian polychromatic erythrocytes, Assay Type: Micronucleus test, chromosome aberrations, Assay Code: MNT+, Evaluation Type: Evaluation B (Post-1980).
The mark [10] stands for this setting: Species/Cell Type: Salmonella typhimurium (one or more of the five standard strains: TA98, TA100, TA1535, TA1537, and TA1538), Assay Type: Histidine reverse gene mutation, Ames assay, Assay Code: SALT, Evaluation Type: Evaluation A (Pre-1980).

As to `c1ccc(C2CO2)cc1` (stereo unspecified), the mutagenic call by setting is: (Species/Cell Type: Chinese hamster lung (V79) cells, Assay Type: Forward gene mutation at the HPRT or ouabain locus, Assay Code: V79+, Evaluation Type: Evaluation A (Pre-1980)) “active; positive”; (Species/Cell Type: Drosophila melanogaster, Assay Type: Sex-linked recessive lethal gene mutation, Assay Code: SRL+, Evaluation Type: Evaluation A (Pre-1980)) “active; positive”; (Species/Cell Type: Escherichia coli WP2 UVRA, Assay Type: Tryptophan reverse gene mutation, Assay Code: WPU+D, Dose Response: With dose response, Evaluation Type: Evaluation A (Pre-1980)) “active; positive”; (Species/Cell Type: Human diploid fibroblasts, Assay Type: Unscheduled DNA synthesis (UDS) in vitro, DNA effects, Assay Code: UDH+, Evaluation Type: Evaluation A (Pre-1980)) “active; positive”; (Species/Cell Type: Human lymphocytes, Assay Type: Micronucleus test in vitro, chromosome aberrations, Assay Code: MN7+, Evaluation Type: Evaluation A (Pre-1980)) “active; positive”; under setting [1], “active; positive”. In addition, the mutagenic call is, setting by setting: under setting [2], “active; positive”; (Species/Cell Type: Mammalian polychromatic erythrocytes, Assay Type: Micronucleus test, chromosome aberrations, Assay Code: MNTT, Evaluation Type: Evaluation A (Pre-1980)) “no conclusion”; under setting [4], “active; positive”; (Species/Cell Type: Plant, Assay Type: Micronucleus test, chromosome aberrations, Assay Code: MNP+, Evaluation Type: Evaluation A (Pre-1980)) “active; positive”; (Species/Cell Type: Rodents, Sex: Male, Assay Type: Dominant lethal test, Assay Code: DLT-, Evaluation Type: Evaluation A (Pre-1980)) “inactive; negative”; (Species/Cell Type: Saccharomyces cerevisiae, Assay Type: Forward and reverse gene mutation, mitotic recombination and gene conversion, host-mediated assay, Assay Code: HME+, Evaluation Type: Evaluation A (Pre-1980)) “active; positive”. For the same molecule, the mutagenic call runs as follows: (Species/Cell Type: Saccharomyces cerevisiae, Assay Type: Mitotic recombination or gene conversion, Assay Code: YEC+*, Activation: With metabolic activation, Evaluation Type: Evaluation A (Pre-1980)) “active; positive”; under setting [5], “active; positive”; (Species/Cell Type: Schizosaccharomyces pombe, Assay Type: Forward gene mutation, Assay Code: YEY+/-*, Activation: With metabolic activation, Evaluation Type: Evaluation A (Pre-1980)) “inactive; positive without activation, negative with activation”. Also, the call under setting [3] is “active; positive”.

Take `Clc1cc2oc3cc(Cl)c(Cl)cc3c2cc1Cl`: the mutagenic call (Species/Cell Type: Saccharomyces cerevisiae, Assay Type: Forward gene mutation, Assay Code: YEF-, Evaluation Type: Evaluation A (Pre-1980)) was “inactive; negative”; the mutagenic call under setting [6] was “inactive; negative”; the mutagenic call under setting [7] is “inactive; negative”.

As for `CC(=O)NNC(=O)c1ccncc1`, for the setting “Species/Cell Type: Salmonella typhimurium, Assay Type: Forward and reverse gene mutation, host-mediated assay, Assay Code: HMAT, Evaluation Type: Evaluation A (Pre-1980)”, the mutagenic call is “no conclusion”.

As to `CC(Cl)CCl` (stereo unspecified), under setting [5], the mutagenic call was “active; positive”.

Regarding `c1ccc2c(c1)Oc1ccccc1O2`, the call (Species/Cell Type: Nonhuman, Assay Code: CCG-L, Evaluation Type: Evaluation A (Pre-1980)) is “inactive; negative”.

Turning to `O=C1c2c(O)ccc(O)c2C(=O)c2c(NCCc3ccccc3)ccc(NCCc3ccccc3)c21`, where the note is “Species/Cell Type: Salmonella typhimurium (one or more of the five standard strains: TA98, TA100, TA1535, TA1537, and TA1538), Assay Type: Histidine reverse gene mutation, Ames assay, Assay Code: SAL+/-*, Activation: With metabolic activation, Evaluation Type: Evaluation A (Pre-1980)”, the mutagenic call was “inactive; positive without activation, negative with activation”.

With `O=C1OC(=O)c2c(Br)c(Br)c(Br)c(Br)c21`, under setting [8], the mutagenic call is “inactive; negative”.

Turning to `CCNC(=S)NCC`, under setting [3], the call is “active; positive”. Besides, the mutagenic call (Species/Cell Type: Syrian hamster embryo (SA7/SHE) cells, Assay Type: Cell transformation, viral enhanced, Assay Code: CT7-, Evaluation Type: Evaluation A (Pre-1980)) is “inactive; negative”.

In the case of `c1ccc2[nH]c(-c3cscn3)nc2c1`, the mutagenic call reads like this: (Species/Cell Type: Aspergillus nidulans, Assay Type: Aneuploidy, chromosome aberrations, Assay Code: ASN+, Evaluation Type: Evaluation A (Pre-1980)) “active; positive”; (Species/Cell Type: Aspergillus nidulans, Assay Type: Mitotic recombination, Assay Code: ASGT, Evaluation Type: Evaluation A (Pre-1980)) “no conclusion”; under setting [9], “active; positive”.

`Cc1cc(O)c2c(c1O)C(=O)c1c(O)ccc(O)c1C2=O`: under setting [5], the mutagenic call was “active; positive”.

Turning to `NCl`, the mutagenic call (Species/Cell Type: Mammalian polychromatic erythrocytes, Assay Type: Micronucleus test, chromosome aberrations, Assay Code: MNTT, Evaluation Type: Evaluation B (Post-1980)) is on record as “no conclusion”.

In the case of `Nc1nc(N)c2nc(CNc3ccc(C(=O)N[C@@H](CCC(=O)O)C(=O)O)cc3)cnc2n1`, the mutagenic call is, setting by setting: (Species/Cell Type: Mammalian polychromatic erythrocytes, Assay Type: Micronucleus test, chromosome aberrations, Assay Code: MNT+, Evaluation Type: Evaluation A (Pre-1980)) “active; positive”; (Species/Cell Type: Mouse, Sex: Male, Assay Type: Sperm morphology, Assay Code: SPI+, Evaluation Type: Evaluation A (Pre-1980)) “active; positive”; (Species/Cell Type: Neurospora crassa, Assay Type: Aneuploidy, chromosome aberrations, Assay Code: NEN-, Evaluation Type: Evaluation A (Pre-1980)) “inactive; negative”; (Species/Cell Type: Saccharomyces cerevisiae, Assay Type: Mitotic recombination or gene conversion, Assay Code: YEH+, Evaluation Type: Evaluation A (Pre-1980)) “active; positive”.

Turning to `Nc1c(O)ccc2ccccc12`, the mutagenic call was “active; positive” (Species/Cell Type: Escherichia coli polA (W3119 vs P3478), Assay Type: Rec-assay, DNA effects (bacterial DNA repair), Assay Code: RE1+, Evaluation Type: Evaluation A (Pre-1980)) and “no conclusion” under setting [10].

With `Cc1cc(N=Nc2ccccc2C)ccc1N`, the mutagenic call is “active; positive” (Species/Cell Type: Escherichia coli polA (W3110 vs P3478), Assay Type: Rec-assay, DNA effects (bacterial DNA repair), Assay Code: RE2+, Evaluation Type: Evaluation A (Pre-1980)); “no conclusion” (Species/Cell Type: Escherichia coli polA (W3119 vs P3478), Assay Type: Rec-assay, DNA effects (bacterial DNA repair), Assay Code: RE1T, Evaluation Type: Evaluation A (Pre-1980)); “active; positive” (Species/Cell Type: Neurospora crassa, Assay Type: Forward gene mutation, Assay Code: NEF+, Evaluation Type: Evaluation A (Pre-1980)); “active; positive” (Species/Cell Type: Nonhuman, Assay Type: Sister-chromatid exchange (SCE) in vitro, Assay Code: SC2+D, Dose Response: With dose response, Evaluation Type: Evaluation B (Post-1980)); “no conclusion” (Species/Cell Type: Nonhuman, Assay Type: Sister-chromatid exchange (SCE) in vitro, Assay Code: SC2T, Evaluation Type: Evaluation A (Pre-1980)); “active; positive” under setting [4]. For the same molecule, the mutagenic call was “inactive; negative” under setting [7]; “active; positive” (Species/Cell Type: Salmonella typhimurium (one or more of the five standard strains: TA98, TA100, TA1535, TA1537, and TA1538), Assay Type: Histidine reverse gene mutation, Ames assay, Assay Code: SAL+*, Activation: With metabolic activation, Evaluation Type: Evaluation A (Pre-1980)); “no conclusion” under setting [10]; “inactive; negative” (Species/Cell Type: Salmonella typhimurium, Assay Type: Forward and reverse gene mutation, host-mediated assay, Assay Code: HMA-, Evaluation Type: Evaluation A (Pre-1980)); “active; positive” (Species/Cell Type: Syrian hamster embryo (SHE) cells, Assay Type: Cell transformation, clonal assay, Assay Code: CTC+, Evaluation Type: Evaluation A (Pre-1980)). Further, for the setting “Species/Cell Type: Nonhuman, Assay Code: CCG+, Evaluation Type: Evaluation A (Pre-1980)”, the call is “active; positive”.

Regarding `CC1CC2=C(CCC2=O)c2ccc3ccccc3c21` (stereo unspecified), the mutagenic call under setting [10] is on record as “no conclusion”.

Consider `Cc1c2ccccc2c(C2CO2)c2ccccc12` (stereo unspecified), for which the mutagenic call under setting [5] is “active; positive”.

As for `Clc1ccc(C2CO2)cc1` (stereo unspecified), under setting [10], the mutagenic call is “no conclusion”.

Turning to `CCN(Cc1cccc(S(=O)(=O)O)c1)c1ccc(C(=C2C=CC(=[N+](CC)Cc3cccc(S(=O)(=O)O)c3)C=C2)c2ccc(O)cc2S(=O)(=O)[O-])cc1`, the mutagenic call was “no conclusion” (Species/Cell Type: Bacillus subtilis (H17 vs M45), Assay Type: Rec-assay, spot test, DNA effects (bacterial DNA repair), Assay Code: REWT, Evaluation Type: Evaluation A (Pre-1980)); “no conclusion” (Species/Cell Type: Bacillus subtilis (H17 vs M45T), Assay Type: Rec-assay, spot test, DNA effects (bacterial DNA repair), Assay Code: REXT, Evaluation Type: Evaluation A (Pre-1980)); “active; positive” under setting [9]; “inactive; negative” under setting [6]; “inactive; negative” under setting [8].

Turning to `ClCc1ccc(-c2ccccc2)cc1`, the mutagenic call (Species/Cell Type: Chinese hamster ovary (CHO) cells, Assay Type: Forward gene mutation at the HPRT locus, Assay Code: CHOT, Evaluation Type: Evaluation B (Post-1980)) is listed as “no conclusion”; the mutagenic call under setting [1] was “active; positive”; the mutagenic call under setting [2] is “active; positive”; the mutagenic call (Species/Cell Type: Mammalian polychromatic erythrocytes, Assay Type: Micronucleus test, chromosome aberrations, Assay Code: MNT-, Evaluation Type: Evaluation B (Post-1980)) is “inactive; negative”.
